Reference: patent publication US20250082705A1, “COMPOSITION FOR IMPROVING, PREVENTING, OR TREATING SLEEP DISORDERS COMPRISING DENDROPANAX MORBIFERA EXTRACTS” (JEJU PANATEK Co., Ltd., priority 2023, published 2025)

Experiments:
[1] = ABTS radical scavenging assay; type: biochemical; settings: mean ± standard deviation
Protocol: (§1) The antioxidant activity of the Dendropanax morbifera ethanol extract was analyzed using an ABTS (2,2′-azino-bis (3-ethylbenzothiazoline-6-sulfonic acid)) assay and a DPPH (1,1-diphenyl-2-picrylhydrazyl) assay. As the experimental result, the concentration of a sample that appeared when the absorbance decreased by 50% was represented as IC50, and ascorbic acid was used as a standard material.
Specifically, in the ABTS method, the ABTS solution was mixed with the extract at a ratio of 20:1 and the absorbance was measured. Light was blocked at room temperature and the results were confirmed at 414 nm after 60 minutes of reaction. The ABTS solution was obtained by dissolving 7.4 mM ABTS and 2.6 mM potassium persulfate in distilled water and stored at 4° C. for 1 day, and adjusted so that a blank value was 1.4 to 1.5.

[2] = DPPH radical scavenging assay; type: biochemical; settings: mean ± standard deviation
Protocol: as §1
In the DPPH method, the absorbance was measured by mixing a
DPPH·methanol solution with the sample in a 1:1 ratio. Light was blocked at room temperature and the results were confirmed at 520 nm after 5 minutes of reaction. The DPPH·methanol solution was adjusted so that the blank value was 1.7 to 1.8.

ABTS IC50 [1]: 71 ± 2 µg/mL
DPPH IC50 [2]: 25 ± 1 µg/mL
SMILES: O=C1O[C@H]([C@@H](O)CO)C(O)=C1O [Ascorbic acid]
